Measured values as given in ChEMBL document CHEMBL1201862, “PubChem BioAssay data set” (2004).
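1) Cells in 96-well plates. 2) Compound, 48 h, 5 concentrations. 3) Linear interpolation between surrounding doses. 4) Unreached endpoint = highest concentration. Abbreviation: GI50, concentration required for 50% inhibition of growth.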 Active and inactive are the calls of the source. No stated cut-off is given here; in the data, active = GI50 up to about 1.1 µM and inactive = higher.

Experiments:
Experiment in all cases: inhibition of tumour cell growth, NCI panel, 48 h
[1] = test system: 786-0
[2] = test system: CCRF-CEM
[3] = test system: DU-145
[4] = test system: EKVX
[5] = test system: HCC 2998
[6] = test system: HCT-15
[7] = test system: HOP-62
[8] = test system: HOP-92
[9] = test system: K562
[10] = test system: NCI-H522
[11] = test system: OVCAR-5
[12] = test system: RXF 393
[13] = test system: SF-295
[14] = test system: SF-539
[15] = test system: SK-MEL-28
[16] = test system: SK-MEL-2
[17] = test system: SK-MEL-5
[18] = test system: SNB-75
[19] = test system: U-251
[20] = test system: UACC-257

Row | SMILES | GI50 [1] | GI50 [2] | GI50 [3] | GI50 [4] | GI50 [5] | GI50 [6] [µM] | GI50 [7] | GI50 [8] | GI50 [9] | GI50 [10] | GI50 [11] | GI50 [12] | GI50 [13] | GI50 [14] | GI50 [15] | GI50 [16] | GI50 [17] | GI50 [18] | GI50 [19] | GI50 [20]
1 | COC(=O)c1ccc(CCc2cc(O)ccc2O)cc1 | 5.47 µM (inactive) | 0.67 µM (active) | 32.4 µM (inactive) | 13.3 µM (inactive) | 23.9 µM (inactive) | 8.79 | 12.2 µM (inactive) | 9.25 µM (inactive) | 2.15 µM (inactive) | 0.706 µM (active) | 19.2 µM (inactive) | 7.89 µM (inactive) | 21.3 µM (inactive) | 3.66 µM (inactive) | 16.6 µM (inactive) | 18.8 µM (inactive) | 10.2 µM (inactive) | 3.77 µM (inactive) | 7.46 µM (inactive) | 13 µM (inactive)
2 | c1ccc2c(c1)Oc1cccc3cccc-2c13 | > 100 µM (inactive) | > 100 µM (inactive) | > 100 µM (inactive) | > 100 µM (inactive) | > 100 µM (inactive) | 98.4 | > 100 µM (inactive) | > 100 µM (inactive) | > 100 µM (inactive) | > 100 µM (inactive) | > 100 µM (inactive) | > 100 µM (inactive) | > 100 µM (inactive) | > 100 µM (inactive) | > 100 µM (inactive) | > 100 µM (inactive) | > 100 µM (inactive) | > 100 µM (inactive) | > 100 µM (inactive) | > 100 µM (inactive)
3 | c1ccc([P+](CC[P+](c2ccccc2)(c2ccccc2)c2ccccc2)(c2ccccc2)c2ccccc2)cc1 | 21.9 µM (inactive) | 0.25 µM (active) | 48.9 µM (inactive) | 4.76 µM (inactive) | 7.78 µM (inactive) | 29 | 26.4 µM (inactive) | 32.6 µM (inactive) | 2.44 µM (inactive) | 3.1 µM (inactive) | 44.4 µM (inactive) | 27.4 µM (inactive) | 33.7 µM (inactive) | 9.42 µM (inactive) | 13.7 µM (inactive) | 9.38 µM (inactive) | 8.79 µM (inactive) | 20.1 µM (inactive) | 2.94 µM (inactive) | 1.19 µM (inactive)
4 | CCOC(=O)CCc1ccc(NC(=O)/C=C/c2ccc([N+](=O)[O-])o2)cc1 | 0.229 µM (active) | 0.177 µM (active) | 2.1 µM (inactive) | > 100 µM (inactive) | 2.69 µM (inactive) | 1.77 | 3.27 µM (inactive) | 4.04 µM (inactive) | 0.27 µM (active) | 0.287 µM (active) | 2.34 µM (inactive) | 0.794 µM (active) | 3.48 µM (inactive) | 1.72 µM (inactive) | 0.773 µM (active) | 2.06 µM (inactive) | 1.49 µM (inactive) | 2.16 µM (inactive) | 2.12 µM (inactive) | 0.798 µM (active)
5 | COc1ccc(N2C(=O)C3c4[nH]c5ccc(OCc6ccccc6)cc5c4C4CCC(C(C)C)CC4C3C2=O)cc1 (stereo not given) | 8.11 µM (inactive) | 12.6 µM (inactive) | > 100 µM (inactive) | 11 µM (inactive) | > 100 µM (inactive) | > 100 | 8.63 µM (inactive) | 32.1 µM (inactive) | 16.7 µM (inactive) | 12.3 µM (inactive) | > 40 µM (inactive) | 13.4 µM (inactive) | 6.4 µM (inactive) | 6.03 µM (inactive) | > 100 µM (inactive) | 15.2 µM (inactive) | > 100 µM (inactive) | 2.23 µM (inactive) | 10.8 µM (inactive) | > 100 µM (inactive)
6 | O=c1cc(-c2ccccc2)c2ccc(O)c(CN(CCCl)CCCl)c2o1 | 18.5 µM (inactive) | 3.07 µM (inactive) | 33.6 µM (inactive) | 25.5 µM (inactive) | 12.3 µM (inactive) | 22.1 | 17.2 µM (inactive) | 20.8 µM (inactive) | 29 µM (inactive) | 14.7 µM (inactive) | 17.8 µM (inactive) | 14 µM (inactive) | 11 µM (inactive) | 20.3 µM (inactive) | 18.8 µM (inactive) | 22.8 µM (inactive) | 16.9 µM (inactive) | 15.7 µM (inactive) | 22.1 µM (inactive) | 16.4 µM (inactive)
7 | O=c1cc(/N=N\c2ccc(Br)cc2)[nH]c(=S)[nH]1 | 4.7 µM (inactive) | 14.6 µM (inactive) | 61.1 µM (inactive) | 19.8 µM (inactive) | 17.8 µM (inactive) | 14.9 | > 100 µM (inactive) | 19.5 µM (inactive) | 21.7 µM (inactive) | 15.5 µM (inactive) | 25.6 µM (inactive) | 16.9 µM (inactive) | > 100 µM (inactive) | 70.1 µM (inactive) | 20.4 µM (inactive) | 11.9 µM (inactive) | 57.1 µM (inactive) | > 100 µM (inactive) | 36.4 µM (inactive) | 27 µM (inactive)
8 | CCSCC(=O)N1CCc2c([nH]c3ccccc23)C1=O | > 100 µM (inactive) | > 100 µM (inactive) | > 100 µM (inactive) | 12.6 µM (inactive) | > 100 µM (inactive) | > 100 | > 100 µM (inactive) | 22.9 µM (inactive) | > 100 µM (inactive) | 64.4 µM (inactive) | 91 µM (inactive) | > 100 µM (inactive) | > 100 µM (inactive) | > 100 µM (inactive) | > 100 µM (inactive) | > 100 µM (inactive) | > 100 µM (inactive) | 78 µM (inactive) | > 100 µM (inactive) | 71.4 µM (inactive)
9 | COC1(OC)C2(Cl)CCC1(Cl)C(OC(C)=O)C2 (stereo not given) | > 100 µM (inactive) | > 100 µM (inactive) | > 100 µM (inactive) | > 100 µM (inactive) | > 100 µM (inactive) | > 100 | > 100 µM (inactive) | > 100 µM (inactive) | > 100 µM (inactive) | > 74.1 µM (inactive) | > 100 µM (inactive) | > 100 µM (inactive) | > 100 µM (inactive) | > 100 µM (inactive) | > 100 µM (inactive) | > 100 µM (inactive) | > 100 µM (inactive) | > 100 µM (inactive) | > 100 µM (inactive) | > 100 µM (inactive)
10 | CCSC(=O)/C=C1\CN(C(=O)OC(C)(C)C)C1C(=O)OC(C)(C)C (stereo not given) | 1.87 µM (inactive) | 1.27 µM (inactive) | 4.95 µM (inactive) | 10.5 µM (inactive) | 5.38 µM (inactive) | 1.52 | 14.1 µM (inactive) | 2.59 µM (inactive) | 1.91 µM (inactive) | 2.49 µM (inactive) | 6.24 µM (inactive) | 1.91 µM (inactive) | 12.1 µM (inactive) | 3.03 µM (inactive) | 1.86 µM (inactive) | 6.59 µM (inactive) | 3.37 µM (inactive) | 2.59 µM (inactive) | 6.19 µM (inactive) | 4.21 µM (inactive)
11 | CC(=C(C(=O)O)C(=O)O)c1cc(-c2cccs2)cc(-c2ccc(Cl)cc2)c1O | 15.2 µM (inactive) | 18.7 µM (inactive) | 14.4 µM (inactive) | 17.3 µM (inactive) | 18.5 µM (inactive) | 14 | 24.1 µM (inactive) | 14.9 µM (inactive) | 5.3 µM (inactive) | 14.3 µM (inactive) | 29.4 µM (inactive) | 14 µM (inactive) | 17.9 µM (inactive) | 14.6 µM (inactive) | 17.5 µM (inactive) | 32.4 µM (inactive) | 19.3 µM (inactive) | 18 µM (inactive) | 14.3 µM (inactive) | 16.7 µM (inactive)
12 | CC1=CC2=C(OCO1)C(=O)c1ccccc1C2=O | 12.8 µM (inactive) | 10.1 µM (inactive) | 2.16 µM (inactive) | 46.7 µM (inactive) | 30.5 µM (inactive) | 14.8 | 6.87 µM (inactive) | 10.4 µM (inactive) | 6.87 µM (inactive) | 2.57 µM (inactive) | 6.21 µM (inactive) | 4.61 µM (inactive) | 4.17 µM (inactive) | 6.14 µM (inactive) | 4.86 µM (inactive) | 0.652 µM (active) | 1.5 µM (inactive) | 3.66 µM (inactive) | 1.36 µM (inactive) | 2.79 µM (inactive)
13 | NC(=O)Cc1nc2c(O)ncnc2n1C1OC(CO)C(O)C1O (stereo not given) | > 100 µM (inactive) | > 100 µM (inactive) | > 100 µM (inactive) | > 100 µM (inactive) | > 100 µM (inactive) | > 100 | > 100 µM (inactive) | > 100 µM (inactive) | > 100 µM (inactive) | > 100 µM (inactive) | > 100 µM (inactive) | > 100 µM (inactive) | > 100 µM (inactive) | > 100 µM (inactive) | > 100 µM (inactive) | > 100 µM (inactive) | > 100 µM (inactive) | > 100 µM (inactive) | > 100 µM (inactive) | > 100 µM (inactive)
14 | CNC(=O)OCc1nc(N=[N+]=[N-])n(C)c1COC(=O)NC | > 10 µM (inactive) | 32.1 µM (inactive) | 49.8 µM (inactive) | > 100 µM (inactive) | 38.4 µM (inactive) | 60.4 | 52.7 µM (inactive) | 25.3 µM (inactive) | 46.5 µM (inactive) | 19.5 µM (inactive) | > 100 µM (inactive) | 21.7 µM (inactive) | 67.1 µM (inactive) | 54.5 µM (inactive) | > 100 µM (inactive) | 26.7 µM (inactive) | > 10 µM (inactive) | 49 µM (inactive) | 31.3 µM (inactive) | > 100 µM (inactive)
